Test results reported in ChEMBL document CHEMBL5614443, “Hybrids of 3-Hydroxypyridin-4(1H)-ones and Long-Chain 4-Aminoquinolines as Potent Biofilm Inhibitors of Pseudomonas aeruginosa Potentiate Tobramycin and Polymyxin B Activity” (J Med Chem, 2024).
Calls of active or inactive are those of the source. The calls are words filed in the database; no cut-off is given here.

Legend:
[1] = Inhibition of quorum sensing system in Pseudomonas aeruginosa PAO1 transfected with mini-ctx-pqsA-lacZ reporter gene assessed as decrease in beta-galactosidase activity incubated for 6 hrs by Miller assay; settings: dose 1.25-20 µM
Pseudomonas aeruginosa [2] = experiment: Synergistic antibacterial activity against Pseudomonas aeruginosa clinical isolate 1121 assessed as reduction in bacterial viability at 10 to 50 uM incubated for 24 hrs in presence of 1/8 MIC of tobramycin by LB agar plate method; format: functional, organism-based; settings: dose 10-50 µM
Pseudomonas aeruginosa [3] = experiment: Antibiofilm activity against Pseudomonas aeruginosa PAO1 assessed as inhibition of biofilm formation incubated for 24 hrs by crystal violet staining based analysis; format: functional, organism-based; settings: PAO1, 24 h
Pseudomonas aeruginosa [4] = experiment: Antibiofilm activity against Pseudomonas aeruginosa PAO1 assessed as decrease in biofilm formation incubated for 24 hrs by LIVE/DEAD BacLight staining based 3D confocal laser scanning microscopy; format: functional, organism-based; settings: dose 1-10 µM
Pseudomonas aeruginosa [5] = experiment: Synergistic antibacterial activity against Pseudomonas aeruginosa PAO1 assessed as fold reduction in bacterial survival rate incubated for 24 hrs in presence of meropenem by LB agar plate method; format: functional
Pseudomonas aeruginosa [6] = experiment: Antivirulence activity in Pseudomonas aeruginosa clinical isolate 1121 assessed as reduction in rhamnolipid production at 10 uM incubated for 24 hrs by absorbance based microtiter plate reader analysis; format: functional, organism-based
Pseudomonas aeruginosa [7] = experiment: Inhibition of motility in Pseudomonas aeruginosa PAO1 assessed as reduction in twitching movements at 50 uM incubated for 16 hrs by motility assay; format: functional, organism-based
Pseudomonas aeruginosa [8] = experiment: Antibacterial activity against Pseudomonas aeruginosa clinical isolate FB assessed as inhibition of bacterial growth incubated for 24 hrs by CLSI protocol based method; format: functional, organism-based
Pseudomonas aeruginosa [9] = experiment: Antivirulence activity in Pseudomonas aeruginosa clinical isolate 0815 assessed as reduction in elastase production at 10 uM incubated for 24 hrs by elastin-congo red dye based absorbance assay; format: functional, organism-based
Pseudomonas aeruginosa [10] = experiment: Antivirulence activity in Pseudomonas aeruginosa clinical isolate 1121 assessed as reduction in pyocyanin production at 10 uM incubated for 24 hrs by absorbance based analysis; format: functional, organism-based
Pseudomonas aeruginosa [11] = experiment: Antibacterial activity against Pseudomonas aeruginosa PAO1 assessed as bacterial survival rate at 10 to 50 uM incubated for 24 hrs by LB agar plate method relative to control; format: functional; settings: dose 10-50 µM
Pseudomonas aeruginosa [12] = experiment: Synergistic antibacterial activity against Pseudomonas aeruginosa clinical isolate 0815 assessed as reduction in bacterial viability at 10 to 50 uM incubated for 24 hrs in presence of 1/8 MIC of tobramycin by LB agar plate method; format: functional, organism-based; settings: dose 10-50 µM
[13] = Inhibition of quorum sensing system in Pseudomonas aeruginosa PAO1 transfected with mini-ctx-rhlA-lacZ reporter gene assessed as decrease in beta-galactosidase activity incubated for 6 hrs by Miller assay; settings: dose 1.25-20 µM
Pseudomonas aeruginosa [14] = experiment: Synergistic antibacterial activity against Pseudomonas aeruginosa PAO1 assessed as fold reduction in bacterial survival rate incubated for 24 hrs in presence of ceftazidime by LB agar plate method; format: functional
Pseudomonas aeruginosa [15] = experiment: Synergistic antibacterial activity against Pseudomonas aeruginosa clinical isolate 1167 assessed as reduction in bacterial viability at 10 to 50 uM incubated for 24 hrs in presence of 1/2 MIC of tobramycin by LB agar plate method; format: functional, organism-based; settings: dose 10-50 µM
[16] = Inhibition of quorum sensing system in wildtype Pseudomonas aeruginosa PAO1 assessed as inhibition of pyocyanin production incubated for 24 hrs by absorbance based analysis
Pseudomonas aeruginosa [17] = experiment: Antivirulence activity in Pseudomonas aeruginosa clinical isolate 1167 assessed as reduction in elastase production at 10 uM incubated for 24 hrs by elastin-congo red dye based absorbance assay; format: functional, organism-based
Pseudomonas aeruginosa [18] = experiment: Synergistic antibacterial activity against Pseudomonas aeruginosa clinical isolate 0815 assessed as reduction in bacterial viability at 10 to 50 uM incubated for 24 hrs in presence of 1/2 MIC of tobramycin by LB agar plate method; format: functional, organism-based; settings: dose 10-50 µM
Pseudomonas aeruginosa [19] = experiment: Synergistic antibacterial activity against Pseudomonas aeruginosa PAO1 assessed as fold reduction in bacterial survival rate at 50 uM incubated for 24 hrs in presence of 1/2 MIC of […] by LB agar plate method relative to polymyxin B alone; format: functional
Pseudomonas aeruginosa [20] = experiment: Synergistic antibacterial activity against Pseudomonas aeruginosa clinical isolate 1121 assessed as fold reduction in bacterial viability at 50 uM incubated for 24 hrs in presence of 1/2 MIC of tobramycin by LB agar plate method relative to tobramycin alone; format: functional
Pseudomonas aeruginosa [21] = experiment: Antibacterial activity against Pseudomonas aeruginosa clinical isolate 1031 assessed as inhibition of bacterial growth incubated for 24 hrs by CLSI protocol based method; format: functional, organism-based
Pseudomonas aeruginosa [22] = experiment: Synergistic antibacterial activity against Pseudomonas aeruginosa PAO1 assessed as bacterial survival rate at 50 uM incubated for 24 hrs in presence of 1/2 MIC of tobramycin by LB agar plate method relative to control; format: functional
Pseudomonas aeruginosa [23] = experiment: Antibacterial activity against Pseudomonas aeruginosa clinical isolate 0808 assessed as inhibition of bacterial growth incubated for 24 hrs by CLSI protocol based method; format: functional, organism-based
Pseudomonas aeruginosa [24] = experiment: Induction of Fe3+ chelating activity in Pseudomonas aeruginosa PAO1 assessed as increase in pyochelin production by measuring fold change at 50 uM incubated for 24 hrs by fluorescence microplate reader
Pseudomonas aeruginosa [25] = experiment: Inhibition of motility in Pseudomonas aeruginosa PAO1 assessed as reduction in swarming movements incubated for 16 hrs by motility assay; format: functional, organism-based; settings: dose 1.25-50 µM

In the case of Cc1cc(=O)c(O)c(C(=O)NCCCCCCCCNc2ccnc3cc(Cl)ccc23)n1C.Cl, the inhibition [1] is reported as “Dose-Dependent Effect”, the Activity (Pseudomonas aeruginosa [2]) is reported as “Active” and the IC50 (Pseudomonas aeruginosa [3]) is reported as 5.8 µM. For the same compound, the Activity (Pseudomonas aeruginosa [4]) was “Dose-Dependent Effect”, the “fold change (FC)” value (Pseudomonas aeruginosa [5]) was less than 10 and the Activity (Pseudomonas aeruginosa [6]) was “Active”. For the same compound, the inhibition (Pseudomonas aeruginosa [7]) was “Active”, the Activity (Pseudomonas aeruginosa [8]) was “inactive” and the Activity (Pseudomonas aeruginosa [9]) was “Active”. For the same compound, the Activity (Pseudomonas aeruginosa [10]) was “Active”, the Survival (Pseudomonas aeruginosa [11]) was roughly 100% and the Activity (Pseudomonas aeruginosa [12]) was “Active”. The inhibition [13] was “Dose-Dependent Effect”, the “fold change (FC)” value (Pseudomonas aeruginosa [14]) was less than 10 and the Activity (Pseudomonas aeruginosa [15]) was “Active”. For the same compound, the IC50 [16] was 6.9 µM, the Activity (Pseudomonas aeruginosa [17]) was “Active” and the Activity (Pseudomonas aeruginosa [18]) was “Active”. The “fold change (FC)” value (Pseudomonas aeruginosa [19]) was roughly 100, the “fold change (FC)” value (Pseudomonas aeruginosa [20]) was 15 and the Activity (Pseudomonas aeruginosa [21]) was “inactive”. The survival at 50 µM (Pseudomonas aeruginosa [22]) was less than 0.2%, the Activity (Pseudomonas aeruginosa [23]) was “inactive” and the fold change (FC) (Pseudomonas aeruginosa [24]) was 2. For the same compound, the inhibition (Pseudomonas aeruginosa [25]) was “Dose-Dependent Effect”.
